Values after ≈ are worked out from the molar mass of the structure shown.
Experiments:
HL60/S cells = assay: IC50 of cells treated with drug (drug sensitivity); type: cell-based; conditions: Homo sapiens, HL-60, do not express P-glycoprotein, read-out: IC₅₀
HL60/Adr cells = assay: IC50 of cells treated with drug (drug sensitivity); type: cell-based; conditions: Homo sapiens; HL60/Adr cells (resistant to doxorubicin); express P190, no P-glycoprotein; read-out: IC₅₀

IC50 (HL60/S cells) [µg/mL]	IC50 (HL60/Adr cells) [µg/mL]	Compound
0.011 (≈ 0.0202 µM)	2.2 (≈ 4.05 µM)	COc1cccc2c1C(=O)c1c(O)c3c(c(O)c1C2=O)C[C@@](O)(C(=O)CO)C[C@@H]3O[C@H]1C[C@H](N)[C@H](O)[C@H](C)O1 [Adriamycin, Doxorubicin]
0.39 (≈ 0.663 µM)	> 10	COc1cc([C@@H]2c3cc4c(cc3[C@@H](O[C@@H]3O[C@@H]5CO[C@@H](C)O[C@H]5[C@H](O)[C@H]3O)[C@H]3COC(=O)[C@H]23)OCO4)cc(OC)c1O [Etoposide]
